Data as given in patent US20230146455A1, “TREATMENT OF INFLAMMATORY DISEASES WITH PEPTIDES AND PHARMACEUTICAL COMPOSITIONS” (Yuyu Pharma, Inc., priority 2020, published 2023).
Where “and” joins values, the source holds several entries; their conditions need not be identical. Equal entries are not always repeated. Where a SMILES comes first, the peptide text is derived from it. [ ]: non-standard residue; d: D form. Hyp = O=C(O)[C@@H]1C[C@@H](O)CN1

Tested on: IL-17A
Assay: Example 9 Luminex, LPS hPBMCs: IL-17A
Assay type: cell-based, human
Method: Treatment Human PBMCs were pretreated with YY-101, YDE-011 and YDE-043 or reference compound; Xiidra® at various concentration (ranging from 1 nM to 100 uM) for 2 h before stimulation. An equal volume of 0.5% DMSO was used as a vehicle control. Then, the cells were treated with LPS at 5 ug/ml. The supernatants from treated cells were harvested at 24 h and placed in a 96 well for Luminex cytokine & chemokine profiling using a Luminex 200 multiplex assay (Luminex; R&D system, USA).
The main study arm with triplicate wells per group in a 24-well plate: • 1. Blank • 2. PBMC: 0.5% DMSO • 3. PBMC+LPS (5 ug/ml) • 4. PBMC+YY-101 100 uM • 5. PBMC+YY-101 10 uM • 6. PBMC+YY-101 1 uM • 7. PBMC+YY-101 0.1 uM • 8. PBMC+YY-101 0.01 uM • 9. PBMC+LPS (5 ug/ml)+Xiidra®100 uM • 10. PBMC+LPS (5 ug/ml)+Xiidra® 10 uM • 11. PBMC+LPS (5 ug/ml)+Xiidra® 1 uM • 12. PBMC+LPS (5 ug/ml)+Xiidra®0.1 uM • 13. PBMC+LPS (5 ug/ml)+Xiidra®0.01 uM • 14. PBMC+LPS (5 ug/ml)+Xiidra®0.001 uM • 15. PBMC+LPS (5 ug/ml)+YY-101 100 uM • 16. PBMC+LPS (5 ug/ml)+YY-101 10 uM • 17. PBMC+LPS (5 ug/ml)+YY-101 1 uM • 18. PBMC+LPS (5 ug/ml)+YY-101 0.1 uM • 19. PBMC+LPS (5 ug/ml)+YY-101 0.01 uM • 20. PBMC+LPS (5 ug/ml)+YY-101 0.001 uM • 21. PBMC+LPS (5 ug/ml)+YDE-011 100 uM • 22. PBMC+LPS (5 ug/ml)+YDE-011 10 uM • 23. PBMC+LPS (5 ug/ml)+YDE-011 1 uM • 24. PBMC+LPS (5 ug/ml)+YDE-011 0.1 uM • 25. PBMC+LPS (5 ug/ml)+YDE-011 0.01 uM • 26. PBMC+LPS (5 ug/ml)+YDE-011 0.001 uM • 27. PBMC+LPS (5 ug/ml)+YDE-043 100 uM • 28. PBMC+LPS (5 ug/ml)+YDE-043 10 uM • 29. PBMC+LPS (5 ug/ml)+YDE-043 1 uM • 30. PBMC+LPS (5 ug/ml)+YDE-043 0.1 uM • 31. PBMC+LPS (5 ug/ml)+YDE-043 0.01 uM • 32. PBMC+LPS (5 ug/ml)+YDE-043 0.001 uM
Multiplex assay was used to measure 30 cytokines and chemokines. The 1:2, 1:10 and 1:200 diluted cell supernatant and serial dilution of the standard were dispensed into a 96 well plate at 50 ul/well. Then, the pre-mixed cocktail of antibody-coated magnetic beads was dispensed at 50 ul/well and incubated at room temperature for 2 h in a horizontal orbital microplate shaker at 800±500 rpm. The beads were washed using a magnetic device to prevent loss. The biotin-antibody was dispensed in 50 ul of each well and incubated at room temperature for 1 h in a shaker at 800±500 rpm. After washing, streptavidin-PE was added at 50 ul/well and incubated at room temperature for 30 min in a shaker under the same conditions. Finally, after washing, wash buffer (100 ul/well) was added to the plate and incubated in a shaker for 2 min. The Luminex™ 200 setting were set according to the manufacturer's protocol. The data was calculated with a standard five-parameter logistic nonlinear regression analysis of the data (xPonent software 4.2, USA). The levels of cytokine/chemokine are normalized to the live cell counts (1×10^5 cells/mL) and presented as concentrations per mL (pg/mL or ng/mL).

[1] = PBMC + LPS(5 ug/ml) + test article 0.001 uM, Mean
[2] = PBMC + LPS(5 ug/ml) + test article 0.001 uM, single replicates (1st, 2nd, 3rd)
[3] = PBMC + LPS(5 ug/ml) + test article 0.01 uM, Mean
[4] = PBMC + LPS(5 ug/ml) + test article 0.01 uM, single replicates (1st, 2nd, 3rd)
[5] = PBMC + LPS(5 ug/ml) + test article 0.1 uM, Mean
[6] = PBMC + LPS(5 ug/ml) + test article 0.1 uM, single replicates (1st, 2nd, 3rd)
[7] = PBMC + LPS(5 ug/ml) + test article 1 uM, Mean
[8] = PBMC + LPS(5 ug/ml) + test article 1 uM, single replicates (1st, 2nd, 3rd)
[9] = PBMC + LPS(5 ug/ml) + test article 10 uM, Mean
[10] = PBMC + LPS(5 ug/ml) + test article 10 uM, single replicates (1st, 2nd, 3rd)
[11] = PBMC + LPS(5 ug/ml) + test article 100 uM, Mean
[12] = PBMC + LPS(5 ug/ml) + test article 100 uM, single replicates (1st, 2nd, 3rd)

| Compound | Concentration, IL-17A [1] [pg/mL] | MFI, Bead name: IL-17A [1] | conc/live cell, IL-17A [1] [pg/10^5] | Concentration, IL-17A [2] | MFI, Bead name: IL-17A [2] | conc/live cell, IL-17A [2] | Concentration, IL-17A [3] [pg/mL] | MFI, Bead name: IL-17A [3] | conc/live cell, IL-17A [3] [pg/10^5] | Concentration, IL-17A [4] | MFI, Bead name: IL-17A [4] | conc/live cell, IL-17A [4] | Concentration, IL-17A [5] [pg/mL] | MFI, Bead name: IL-17A [5] | conc/live cell, IL-17A [5] [pg/10^5] | Concentration, IL-17A [6] | MFI, Bead name: IL-17A [6] | conc/live cell, IL-17A [6] | Concentration, IL-17A [7] [pg/mL] | MFI, Bead name: IL-17A [7] | further results |
| --- | --- | --- | --- | --- | --- | --- | --- | --- | --- | --- | --- | --- | --- | --- | --- | --- | --- | --- | --- | --- | --- |
| CC(C)C[C@H](NC(=O)CNC(=O)[C@H](CC(C)C)NC(=O)[C@H](CCC(N)=O)NC(=O)CNC(=O)[C@@H]1C[C@@H](O)CN1)C(=O)N[C@@H](C)C(=O)NCC(=O)N1CCC[C@H]1C(=O)N[C@@H](CCCCN)C(=O)O [YDE-011] (H-[Hyp]GQLGLAGPK-OH) | 3.3 | 1.8 | 0.6 | 4.3 pg/ml and 2.7 pg/ml (2×) | 2.5 and 1.5 (2×) | 1.0 pg/10^5 and 0.5 pg/10^5 (2×) | 2.1 | 1.2 | 0.4 | 1.0 pg/ml (2×) and 4.3 pg/ml | 0.5 (2×) and 2.5 | 0.2 pg/10^5 (2×) and 0.9 pg/10^5 | 1.6 | 0.8 | 0.3 | 2.7 pg/ml and 1.0 pg/ml (2×) | 1.5 and 0.5 (2×) | 0.4 pg/10^5 and 0.2 pg/10^5 (2×) | 3.8 | 2.2 | conc/live cell, IL-17A [7]: 0.8 pg/10^5; Concentration, IL-17A [8]: 4.3 pg/ml (2×) and 2.7 pg/ml; MFI, Bead name: IL-17A [8]: 2.5 (2×) and 1.5; conc/live cell, IL-17A [8]: 0.8 pg/10^5 and 0.9 pg/10^5 and 0.6 pg/10^5; Concentration, IL-17A [9]: 2.7 pg/mL; MFI, Bead name: IL-17A [9]: 0.8; conc/live cell, IL-17A [9]: 0.3 pg/10^5; Concentration, IL-17A [10]: 2.7 pg/mL; MFI, Bead name: IL-17A [10]: 1.5 (2×) and −0.5; conc/live cell, IL-17A [10]: 0.5 pg/10^5 (2×) and 0.0 pg/10^5; Concentration, IL-17A [11]: 1.0 pg/mL; MFI, Bead name: IL-17A [11]: 0.2; conc/live cell, IL-17A [11]: 0.1 pg/10^5; Concentration, IL-17A [12]: 1.0 pg/mL; MFI, Bead name: IL-17A [12]: 0.5 (2×) and −0.5; conc/live cell, IL-17A [12]: 0.2 pg/10^5 (2×) and 0.0 pg/10^5 |
| CC(C)C[C@H](NC(=O)[C@H](CCC(N)=O)NC(=O)CNC(=O)[C@@H]1C[C@@H](O)CN1)C(=O)NCC(=O)O [YDE-043] (H-[Hyp]GQLG-OH; N-terminus and C-terminus assumed) | 1.0 | 0.2 | 0.2 | 1.0 pg/mL | 0.5 (2×) and −0.5 | 0.2 pg/10^5 (2×) and 0.0 pg/10^5 | 1.0 | 0.5 | 0.2 | 1.0 pg/mL | 0.5 | 0.2 pg/10^5 | 1.6 | 0.8 | 0.3 | 2.7 pg/ml and 1.0 pg/ml (2×) | 1.5 and 0.5 (2×) | 0.5 pg/10^5 and 0.2 pg/10^5 (2×) | 1.9 | 0.5 | conc/live cell, IL-17A [7]: 0.2 pg/10^5; Concentration, IL-17A [8]: 1.0 pg/mL and 2.7 pg/mL; MFI, Bead name: IL-17A [8]: 0.5 and −0.5 and 1.5; conc/live cell, IL-17A [8]: 0.2 pg/10^5 and 0.0 pg/10^5 and 0.5 pg/10^5; Concentration, IL-17A [9]: 1.3 pg/mL; MFI, Bead name: IL-17A [9]: 0.7; conc/live cell, IL-17A [9]: 0.2 pg/10^5; Concentration, IL-17A [10]: 0.1 pg/mL and 2.7 pg/mL and 1.0 pg/mL; MFI, Bead name: IL-17A [10]: 0.0 and 1.5 and 0.5; conc/live cell, IL-17A [10]: 0.0 pg/10^5 and 0.5 pg/10^5 and 0.2 pg/10^5; MFI, Bead name: IL-17A [11]: −0.5; conc/live cell, IL-17A [11]: 0.0 pg/10^5; MFI, Bead name: IL-17A [12]: −0.5; conc/live cell, IL-17A [12]: 0.0 pg/10^5 |
